Columns and labels:
[1] = compound: NC(=O)CCCCC1CCSS1 [lipoamide]; assay: thermal stability z-score vs DMSO; higher = more thermally stabilized by treatment; conditions: HeLa, lipoamide concentration 100 µM
Protocol: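 Cellular thermal proteome profiling in HeLa cells. Cells were treated with 100 µM lipoamide for 1 h, with or without 1 mM arsenate for a further 1 h, then heated to ten temperatures (37-66.3 °C), and soluble protein was quantified by TMT mass spectrometry relative to 0.1% DMSO controls. The thermal stability score (sum of log2 fold changes minus the abundance score) was transformed to a z-score; mean of n = 3 experiments.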

[2] = compound: O=[As]([O-])(O)O.[K+] [potassium arsenate]; assay: as above; conditions: HeLa; arsenate concentration 1 mM
Protocol: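 Cellular thermal proteome profiling in HeLa cells treated with 1 mM arsenate for 1 h (DMSO pretreatment), heated to ten temperatures (37-66.3 °C). Soluble protein was quantified by TMT mass spectrometry relative to DMSO controls; the thermal stability score was transformed to a z-score; mean of n = 3 experiments.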

[3] = arsenate co-treatment: 1 mM arsenate 1 h
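Also: each temperature applied for 3 min, abundance score taken as mean log2 fold change at the two lowest temperatures, z-score obtained by mean subtraction and division by SD.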

UniProt P47736, sequence (P47736 whole entry): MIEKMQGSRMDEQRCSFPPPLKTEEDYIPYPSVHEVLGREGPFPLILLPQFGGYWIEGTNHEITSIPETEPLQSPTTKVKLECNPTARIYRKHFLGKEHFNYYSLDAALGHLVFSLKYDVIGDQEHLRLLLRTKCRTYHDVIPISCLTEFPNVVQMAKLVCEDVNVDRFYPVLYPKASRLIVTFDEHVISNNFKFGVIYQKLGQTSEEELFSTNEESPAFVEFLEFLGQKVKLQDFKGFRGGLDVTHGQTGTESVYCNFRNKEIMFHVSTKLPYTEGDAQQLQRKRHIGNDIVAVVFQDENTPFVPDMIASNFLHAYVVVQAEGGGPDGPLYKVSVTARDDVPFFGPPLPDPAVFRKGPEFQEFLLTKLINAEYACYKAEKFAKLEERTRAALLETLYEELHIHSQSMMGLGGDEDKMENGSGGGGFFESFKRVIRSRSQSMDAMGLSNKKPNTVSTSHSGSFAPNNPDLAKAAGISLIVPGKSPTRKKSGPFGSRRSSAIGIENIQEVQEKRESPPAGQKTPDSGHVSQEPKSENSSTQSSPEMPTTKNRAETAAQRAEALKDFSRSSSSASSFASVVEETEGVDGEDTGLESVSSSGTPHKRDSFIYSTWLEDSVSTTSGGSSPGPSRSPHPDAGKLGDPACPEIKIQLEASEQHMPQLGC
UniProt Q06609, sequence (Q06609 whole entry): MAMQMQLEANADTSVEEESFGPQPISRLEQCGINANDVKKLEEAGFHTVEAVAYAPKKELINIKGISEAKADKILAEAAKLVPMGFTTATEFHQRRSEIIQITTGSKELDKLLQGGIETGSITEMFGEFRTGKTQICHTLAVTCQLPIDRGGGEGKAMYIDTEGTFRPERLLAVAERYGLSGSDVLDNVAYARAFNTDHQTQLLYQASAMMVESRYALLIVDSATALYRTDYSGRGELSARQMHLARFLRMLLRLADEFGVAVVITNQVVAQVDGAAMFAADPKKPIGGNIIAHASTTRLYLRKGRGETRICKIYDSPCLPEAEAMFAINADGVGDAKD
UniProt Q6GYQ0, sequence (Q6GYQ0 whole entry): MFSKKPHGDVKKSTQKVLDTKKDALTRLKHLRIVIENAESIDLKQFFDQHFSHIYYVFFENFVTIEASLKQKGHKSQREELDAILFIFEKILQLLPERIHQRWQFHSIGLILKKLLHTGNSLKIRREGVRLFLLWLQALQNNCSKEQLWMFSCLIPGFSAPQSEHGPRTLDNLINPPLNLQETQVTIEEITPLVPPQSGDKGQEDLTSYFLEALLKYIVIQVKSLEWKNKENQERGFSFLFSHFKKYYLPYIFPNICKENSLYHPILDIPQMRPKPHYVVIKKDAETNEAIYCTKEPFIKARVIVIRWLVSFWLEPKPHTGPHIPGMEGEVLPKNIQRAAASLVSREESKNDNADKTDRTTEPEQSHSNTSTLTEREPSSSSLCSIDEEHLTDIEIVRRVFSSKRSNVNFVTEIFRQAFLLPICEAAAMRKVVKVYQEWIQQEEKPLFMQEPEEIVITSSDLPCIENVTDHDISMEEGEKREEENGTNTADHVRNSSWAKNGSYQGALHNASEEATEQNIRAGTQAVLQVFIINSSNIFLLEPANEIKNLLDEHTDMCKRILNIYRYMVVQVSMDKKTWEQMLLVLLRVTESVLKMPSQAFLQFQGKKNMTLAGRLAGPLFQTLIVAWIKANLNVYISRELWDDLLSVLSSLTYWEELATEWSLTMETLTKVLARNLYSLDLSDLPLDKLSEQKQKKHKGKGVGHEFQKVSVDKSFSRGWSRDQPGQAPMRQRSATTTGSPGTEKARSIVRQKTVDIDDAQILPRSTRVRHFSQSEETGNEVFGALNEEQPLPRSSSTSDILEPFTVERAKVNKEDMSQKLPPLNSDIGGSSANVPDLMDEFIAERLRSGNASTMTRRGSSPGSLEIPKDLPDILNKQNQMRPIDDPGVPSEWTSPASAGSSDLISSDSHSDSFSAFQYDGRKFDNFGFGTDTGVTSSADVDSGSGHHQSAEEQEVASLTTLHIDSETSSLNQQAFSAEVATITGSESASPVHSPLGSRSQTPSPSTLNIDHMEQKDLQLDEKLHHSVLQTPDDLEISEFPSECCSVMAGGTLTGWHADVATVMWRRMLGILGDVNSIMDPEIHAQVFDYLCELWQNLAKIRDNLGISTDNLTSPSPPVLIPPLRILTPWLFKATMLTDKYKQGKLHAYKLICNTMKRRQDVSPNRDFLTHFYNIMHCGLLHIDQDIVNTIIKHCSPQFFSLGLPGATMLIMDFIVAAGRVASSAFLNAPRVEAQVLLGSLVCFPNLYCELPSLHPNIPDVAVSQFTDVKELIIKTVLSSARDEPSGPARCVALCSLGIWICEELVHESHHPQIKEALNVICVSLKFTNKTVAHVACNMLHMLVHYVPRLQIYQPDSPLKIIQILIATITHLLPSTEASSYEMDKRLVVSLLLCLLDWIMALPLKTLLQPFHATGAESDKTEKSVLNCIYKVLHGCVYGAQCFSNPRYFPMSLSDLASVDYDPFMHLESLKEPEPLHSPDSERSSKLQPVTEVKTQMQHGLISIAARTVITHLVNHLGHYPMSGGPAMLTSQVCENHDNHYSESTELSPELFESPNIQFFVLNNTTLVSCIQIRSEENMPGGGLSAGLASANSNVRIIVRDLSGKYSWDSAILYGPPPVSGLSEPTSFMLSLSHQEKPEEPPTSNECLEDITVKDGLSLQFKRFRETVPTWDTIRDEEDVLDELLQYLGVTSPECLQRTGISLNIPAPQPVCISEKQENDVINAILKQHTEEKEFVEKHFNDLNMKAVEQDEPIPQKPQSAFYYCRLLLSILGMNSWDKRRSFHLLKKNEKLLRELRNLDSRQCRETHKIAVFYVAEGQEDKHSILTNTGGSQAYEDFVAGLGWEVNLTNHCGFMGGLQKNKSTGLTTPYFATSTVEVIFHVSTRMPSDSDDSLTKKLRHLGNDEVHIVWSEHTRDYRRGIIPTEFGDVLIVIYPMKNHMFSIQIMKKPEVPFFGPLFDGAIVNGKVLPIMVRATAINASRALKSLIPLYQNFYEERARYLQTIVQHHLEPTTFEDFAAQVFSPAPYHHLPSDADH
UniProt Q96S59, sequence (Q96S59 whole entry): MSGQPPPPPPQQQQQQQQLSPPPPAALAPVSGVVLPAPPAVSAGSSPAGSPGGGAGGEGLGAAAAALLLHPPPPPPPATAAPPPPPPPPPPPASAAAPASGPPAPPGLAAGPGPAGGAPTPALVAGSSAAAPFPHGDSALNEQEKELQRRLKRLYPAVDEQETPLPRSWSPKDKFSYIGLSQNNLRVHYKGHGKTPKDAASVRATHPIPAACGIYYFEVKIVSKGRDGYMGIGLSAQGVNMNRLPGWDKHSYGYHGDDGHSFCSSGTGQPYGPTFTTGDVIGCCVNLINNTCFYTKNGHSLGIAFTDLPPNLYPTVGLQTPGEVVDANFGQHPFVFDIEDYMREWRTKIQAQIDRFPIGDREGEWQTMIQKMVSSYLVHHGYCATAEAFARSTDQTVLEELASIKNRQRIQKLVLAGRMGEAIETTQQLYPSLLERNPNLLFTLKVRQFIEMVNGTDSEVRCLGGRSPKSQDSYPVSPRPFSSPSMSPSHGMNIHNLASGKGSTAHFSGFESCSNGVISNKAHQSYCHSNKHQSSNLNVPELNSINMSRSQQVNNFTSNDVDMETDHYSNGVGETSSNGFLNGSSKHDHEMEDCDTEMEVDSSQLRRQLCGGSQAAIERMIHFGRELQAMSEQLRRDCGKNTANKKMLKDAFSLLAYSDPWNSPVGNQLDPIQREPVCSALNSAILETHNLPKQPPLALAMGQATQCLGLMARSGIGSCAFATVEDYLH
UniProt P62834, sequence (P62834 whole entry): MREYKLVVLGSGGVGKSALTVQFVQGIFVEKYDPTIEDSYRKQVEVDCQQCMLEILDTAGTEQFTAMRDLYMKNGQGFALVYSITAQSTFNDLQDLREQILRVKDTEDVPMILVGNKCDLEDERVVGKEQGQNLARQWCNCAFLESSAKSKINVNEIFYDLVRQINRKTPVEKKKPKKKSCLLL
UniProt Q9P0K7, sequence (Q9P0K7 whole entry): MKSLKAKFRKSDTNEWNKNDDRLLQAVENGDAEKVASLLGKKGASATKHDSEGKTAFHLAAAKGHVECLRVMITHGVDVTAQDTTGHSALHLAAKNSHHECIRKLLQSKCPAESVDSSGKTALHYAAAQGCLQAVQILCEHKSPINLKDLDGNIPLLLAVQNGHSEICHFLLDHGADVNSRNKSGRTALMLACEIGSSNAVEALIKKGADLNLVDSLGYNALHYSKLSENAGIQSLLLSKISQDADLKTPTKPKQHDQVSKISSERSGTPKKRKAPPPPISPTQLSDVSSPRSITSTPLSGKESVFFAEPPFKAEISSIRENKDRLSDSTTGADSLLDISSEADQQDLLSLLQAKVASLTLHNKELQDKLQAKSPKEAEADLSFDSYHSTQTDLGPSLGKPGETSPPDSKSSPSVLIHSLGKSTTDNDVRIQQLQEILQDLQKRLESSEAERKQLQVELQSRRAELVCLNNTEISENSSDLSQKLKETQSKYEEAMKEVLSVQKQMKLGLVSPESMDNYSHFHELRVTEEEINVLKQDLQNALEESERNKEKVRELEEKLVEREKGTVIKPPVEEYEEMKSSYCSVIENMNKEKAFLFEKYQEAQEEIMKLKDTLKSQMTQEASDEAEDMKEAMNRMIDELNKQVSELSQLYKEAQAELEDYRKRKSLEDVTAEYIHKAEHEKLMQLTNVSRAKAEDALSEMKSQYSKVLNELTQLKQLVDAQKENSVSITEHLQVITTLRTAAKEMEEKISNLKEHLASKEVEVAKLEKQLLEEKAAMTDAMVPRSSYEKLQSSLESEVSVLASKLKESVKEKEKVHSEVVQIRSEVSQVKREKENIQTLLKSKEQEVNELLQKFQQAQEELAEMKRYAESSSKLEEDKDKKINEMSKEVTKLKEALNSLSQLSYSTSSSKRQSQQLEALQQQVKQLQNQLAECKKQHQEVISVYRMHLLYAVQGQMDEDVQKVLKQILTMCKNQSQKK
UniProt P61224, sequence (P61224 whole entry): as the sequence (P62834 whole entry) above, with C48A, E107D, C139N, E172P, K173G, K175A, P176R, K179S, L182Q counted along it

| Target | thermal stability z-score [1, 3] | thermal stability z-score ([1]; arsenate co-treatment: none) | thermal stability z-score [2] |
| --- | --- | --- | --- |
| RAD51 (UniProt Q06609) | 0.0327 | 0.256 | -0.0411 |
| RAD51AP1 (UniProt Q96B01) | 0.0622 | -0.213 | -0.76 |
| RAD51B (UniProt O15315) | 0.231 | 0.428 | 0.578 |
| RAD54B (UniProt Q9Y620) | -0.335 | -0.346 | -0.753 |
| RAD54L2 (UniProt Q9Y4B4) | -0.0715 | 0.0462 | -0.235 |
| RAE1 (UniProt P78406) | 0.676 | 1.04 | 0.662 |
| RAF1 (UniProt P04049) | -0.142 | 0.126 | -0.0609 |
| RAI14 (UniProt Q9P0K7) | -0.47 | -0.419 | -0.554 |
| RALA (UniProt P11233) | 0.107 | -0.0183 | -0.459 |
| RALB (UniProt P11234) | 0.25 | -0.129 | 0.0205 |
| RALBP1 (UniProt Q15311) | 0.0469 | 0.055 | 0.00922 |
| RALGAPA1 (UniProt Q6GYQ0) | -0.102 | -0.115 | -2.14 |
| RALGAPB (UniProt Q86X10) | -0.0332 | -0.00538 | -0.112 |
| RALGPS2 (UniProt Q86X27) | -0.0453 | 0.191 | -0.177 |
| RALY (UniProt Q9UKM9) | 0.0855 | -0.0305 | 0.00385 |
| RAN (UniProt P62826) | 0.345 | -0.105 | 0.547 |
| RANBP1 (UniProt P43487) | -0.127 | 0.319 | 0.475 |
| RANBP2 (UniProt P49792) | -0.733 | -0.425 | 1.49 |

| Target | thermal stability z-score [1, 3] | thermal stability z-score ([1]; arsenate co-treatment: none) | thermal stability z-score [2] |
| --- | --- | --- | --- |
| RANBP3 (UniProt Q9H6Z4) | -0.326 | 0.21 | -0.0109 |
| RANBP6 (UniProt O60518) | -0.296 | -0.155 | -0.131 |
| RANBP9 (UniProt Q96S59) | -0.364 | -0.234 | -0.508 |
| RANBP10 (UniProt Q6VN20) | 0.521 | 0.385 | 0.3 |
| RANGAP1 (UniProt P46060) | 0.0948 | 0.327 | 1.77 |
| RAP1A (UniProt P62834) | 0.141 | -0.173 | -0.254 |
| RAP1B (UniProt P61224) | 0.74 | 0.45 | 0.17 |
| RAP1GAP2 (UniProt Q684P5) | 1.12 | 0.923 | 0.124 |
| RAP1GAP (UniProt P47736) | -0.459 | -0.26 | 0.233 |
| RAP1GDS1 (UniProt P52306) | 0.161 | -0.118 | 0.353 |
| RAP2B (UniProt P61225) | 0.92 | 0.134 | -0.0313 |
| RAP2C (UniProt Q9Y3L5) | 1.35 | 0.676 | 0.21 |
| RAPGEF2 (UniProt Q9Y4G8) | 0.309 | -0.293 | -0.388 |
| RAPH1 (UniProt Q70E73) | -0.113 | -0.22 | 0.0198 |
| RARS2 (UniProt Q5T160) | 0.0904 | -0.0472 | 0.328 |
| RARS (UniProt P54136) | -0.341 | -0.305 | 0.39 |
| RASA1 (UniProt P20936) | 0.447 | 0.753 | 1.15 |
